In US20060183902A1, “Dihydroindolyl methanones as alpha 1a/1d adrenoreceptor modulators for the treatment of benign prostatic hypertrophy and lower urinary tract symptoms” (priority 2005, published 2006) one finds Ki data, which are given here for 16 compounds.

The target of one experiment is T1, α1d-AR (Homo sapiens, UniProt P25100).
T1 construct: expressed in transfected cells; host or cells: COS-7
T1 sequence (P25100 1-572): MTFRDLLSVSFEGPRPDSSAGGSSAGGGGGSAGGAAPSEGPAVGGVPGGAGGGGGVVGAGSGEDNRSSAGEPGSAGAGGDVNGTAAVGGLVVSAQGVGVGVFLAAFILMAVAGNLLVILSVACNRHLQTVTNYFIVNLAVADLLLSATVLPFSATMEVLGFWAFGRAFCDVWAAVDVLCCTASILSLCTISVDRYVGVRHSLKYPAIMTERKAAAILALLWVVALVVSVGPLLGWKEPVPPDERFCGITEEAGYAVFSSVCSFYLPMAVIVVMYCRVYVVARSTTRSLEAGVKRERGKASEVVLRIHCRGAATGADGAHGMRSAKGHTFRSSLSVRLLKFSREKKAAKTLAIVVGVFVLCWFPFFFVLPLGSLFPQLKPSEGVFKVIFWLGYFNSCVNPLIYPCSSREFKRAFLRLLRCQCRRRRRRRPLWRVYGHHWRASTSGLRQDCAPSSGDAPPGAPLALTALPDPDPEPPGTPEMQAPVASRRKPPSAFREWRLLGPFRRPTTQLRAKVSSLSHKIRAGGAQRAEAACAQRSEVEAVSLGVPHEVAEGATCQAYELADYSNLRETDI
The experiment can be described thus: α1-Adrenergic receptor radio-ligand (125I-HEAT) binding assay, α1d subtype. Particulars: COS-7 cell membranes transfected with α1d-AR, 125I-HEAT 50 pM; read-out: Receptor Binding, Ki α1d-AR. The protocol: (§1) Membranes were prepared from COS-7 cells (African Green monkey kidney SV40-transformed cells) that had been transfected with one of the three α1-AR subtypes by the following method:
(§2) COS cells from ten 100 mm tissue culture plates were scraped into a 5 mL volume of TE (a mixture of 50 mM tris(hydroxymethyl)aminomethane hydrochloride (Tris-HCl) and 5 mM ethylenediaminetetraacetic acid (EDTA) at pH 7.4). The cell suspension was disrupted with a Brinkman Polytron (at a setting of 8) for 10 sec. The disrupted cells were centrifuged at 1000×g for 10 min at 4° C. Supernatants were centrifuged at 34,500×g for 20 min at 4° C. The membrane pellets were suspended in a 2 mL volume of TNE (a mixture of 50 mM Tris-HCl, 5 mM EDTA and 150 mM NaCl at pH7.4). An aliquot of the membrane suspension was stored at −70° C. until use. The protein concentration was determined using a BioRad “DC” protein assay kit following membrane solubilization with Triton X-100.
(§3) Triplicate determinations of radio-ligand binding in the presence of increasing concentrations of testing compound were made. The reagents were added to 96-well polypropylene plate wells. Each assay well contained 140 μL TNE, 25 μL ^125I-2-(β-4-hydroxyplenyl)ethylaminomethyltetralone (^125I-HEAT) (specific activity 2200 Ci/mmol, Dupont-New England Nuclear, 50 pM final), 10 μL testing compound dissolved in dimethyl sulfoxide (DMSO) (1 pM to 10 μM in half-log increments, final), and 25 μL appropriate α1-AR membrane subtype suspension in TNE (0.5 ng/μL for the α1a and α1b subtypes and 13 ng/μL for the α1d subtype). The plate was incubated at rt for 1 hr. The contents of the wells were filtered through a glass filter (type C) (GF/C) membrane Unifilter plate (Packard Instruments) using the Packard Filtermate cell harvester. The filter plates were dried in a vacuum oven for 30 min at 40° C. 25 μL Microscint 20 liquid scintillation fluid (Packard Instuments) was added to each well. The radioactive content was analyzed in the TopCount microplate scintillation counter (Packard Instruments).
(§4) The Ki values (in nM) shown in Table 1 were determined using GraphPad Prism software.

The target in a further experiment is T2, α1b-AR (Homo sapiens, UniProt P35368).
T2 construct: expressed in transfected cells; host or cells: COS-7
T2 sequence (P35368 1-520): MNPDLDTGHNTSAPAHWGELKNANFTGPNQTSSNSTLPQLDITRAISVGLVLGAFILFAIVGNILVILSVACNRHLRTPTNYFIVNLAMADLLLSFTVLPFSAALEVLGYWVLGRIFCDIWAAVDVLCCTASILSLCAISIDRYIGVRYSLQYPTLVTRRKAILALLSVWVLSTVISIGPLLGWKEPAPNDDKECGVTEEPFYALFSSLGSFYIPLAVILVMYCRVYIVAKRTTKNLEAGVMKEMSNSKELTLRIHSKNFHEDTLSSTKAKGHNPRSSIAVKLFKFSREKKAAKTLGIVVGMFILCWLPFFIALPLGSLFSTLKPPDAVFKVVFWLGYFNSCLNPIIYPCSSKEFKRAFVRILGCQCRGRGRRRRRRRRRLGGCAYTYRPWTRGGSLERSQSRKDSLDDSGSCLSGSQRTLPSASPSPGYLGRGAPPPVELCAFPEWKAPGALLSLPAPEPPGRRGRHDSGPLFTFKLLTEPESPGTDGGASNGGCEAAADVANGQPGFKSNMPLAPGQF
Nature of the experiment: α1-Adrenergic receptor radio-ligand (125I-HEAT) binding assay, α1b subtype. Particulars: COS-7 cell membranes transfected with α1b-AR, 125I-HEAT 50 pM; read-out: Receptor Binding, Ki α1b-AR. Here is the method: as §1, §2, §3, §4

The target in a further experiment is T3, α1a-AR (Homo sapiens, UniProt P35348).
T3 construct: expressed in transfected cells; host or cells: COS-7
T3 sequence (P35348 1-466): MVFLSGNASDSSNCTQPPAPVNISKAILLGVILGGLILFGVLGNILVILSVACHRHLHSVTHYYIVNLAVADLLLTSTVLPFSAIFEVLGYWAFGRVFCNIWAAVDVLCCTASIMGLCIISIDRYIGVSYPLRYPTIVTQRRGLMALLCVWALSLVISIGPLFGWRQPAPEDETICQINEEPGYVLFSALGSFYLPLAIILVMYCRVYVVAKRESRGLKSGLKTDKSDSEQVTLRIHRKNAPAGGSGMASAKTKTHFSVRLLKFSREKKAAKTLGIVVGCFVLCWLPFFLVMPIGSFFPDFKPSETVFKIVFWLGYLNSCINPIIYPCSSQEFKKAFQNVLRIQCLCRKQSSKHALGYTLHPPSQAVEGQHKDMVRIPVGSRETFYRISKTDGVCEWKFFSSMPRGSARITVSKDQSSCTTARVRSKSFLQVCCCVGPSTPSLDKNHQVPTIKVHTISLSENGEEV
The experiment can be described thus: α1-Adrenergic receptor radio-ligand (125I-HEAT) binding assay, α1a subtype. Particulars: COS-7 cell membranes transfected with α1a-AR, 125I-HEAT 50 pM; read-out: Receptor Binding, Ki α1a-AR. Here is the method:
as §1, §2, §3, §4

“And” between values parts separate entries of the source, which are not always exact repeats. Equal entries are not always repeated.

`COc1ccccc1CN1CCN(Cc2ccc(C(=O)N3CCc4ccccc43)cc2)CC1` [Cpd 53, (2,3-dihydro-indol-1-yl)-{4-[4-(2-methoxy-benzyl)-piperazin-1-ylmethyl]-phenyl}-methanone]: the Ki (in general, a dissociation constant, usually derived from enzyme kinetics or from competition with a known ligand) on α1d-AR is 96 nM; on α1b-AR, 104 nM; on α1a-AR, 82 nM.

Regarding `CC(C)Oc1ccccc1N1CCN(Cc2cccc(C(=O)N3CCc4cc(S(=O)(=O)N(C)C)ccc43)c2)CC1` [Cpd 70, 1-{3-[4-(2-isopropoxy-phenyl)-piperazin-1-ylmethyl]-benzoyl}-2,3-dihydro-1H-indole-5-sulfonic acid dimethylamide], the Ki came out at 41 nM on α1d-AR, 1760 nM on α1b-AR and 107 nM at α1a-AR.

Regarding `CCOC(OCC)c1ccc(CNc2ccc3c(c2)CCN3C(=O)c2ccc(CN3CCC(c4ccccc4OC)CC3)cc2)cc1` [Cpd 36, [5-(4-diethoxymethyl-benzylamino)-2,3-dihydro-indol-1-yl]-{4-[4-(2-methoxy-phenyl)-piperidin-1-ylmethyl]-phenyl}-methanone], the figures for the inhibition constant (Ki) on α1d-AR, on α1b-AR and at α1a-AR were 40.2 nM, 1010 nM and 39.2 nM, respectively.

As to `COc1ccccc1N1CCN(Cc2cccc(C(=O)N3CCc4ccccc43)c2)CC1` [Cpd 30, (2,3-dihydro-indol-1-yl)-{3-[4-(2-methoxy-phenyl)-piperazin-1-ylmethyl]-phenyl}-methanone], the Ki on α1d-AR was 4.5 nM and 42 nM; on α1b-AR, 278 nM and 193 nM; on α1a-AR, 26 nM and 30.5 nM.

On to `CC(C)Oc1ccccc1N1CCN(Cc2cccc(C(=O)N3CCc4cc(NC(=O)Nc5ccccc5)ccc43)c2)CC1` [Cpd 21, 1-(1-{3-[4-(2-isopropoxy-phenyl)-piperazin-1-ylmethyl]-benzoyl}-2,3-dihydro-1H-indol-5-yl)-3-phenyl-urea], for which the Ki was determined as 12.5 nM at α1d-AR, 1390 nM on α1b-AR and 73 nM at α1a-AR.

As for `COc1ccccc1C1CCN(Cc2ccc(C(=O)N3CCc4ccc(NC(=O)c5c(OC)cccc5OC)cc43)cc2)CC1` [Cpd 39, 2,6-dimethoxy-N-(1-{4-[4-(2-methoxy-phenyl)-piperidin-1-ylmethyl]-benzoyl}-2,3-dihydro-1H-indol-6-yl)-benzamide], the Ki at α1d-AR was 41 nM; on α1b-AR, 595 nM; on α1a-AR, 74 nM.

Turning to `CC(C)Oc1ccccc1N1CCN(Cc2cccc(C(=O)N3CCc4ccc(NC(=S)Nc5ccccc5)cc43)c2)CC1` [Cpd 13, 1-(1-{3-[4-(2-isopropoxy-phenyl)-piperazin-1-ylmethyl]-benzoyl}-2,3-dihydro-1H-indol-6-yl)-3-phenyl-thiourea], the Ki is 4 nM and 3.11 nM on α1d-AR; 305 nM at α1b-AR; 33 nM at α1a-AR.

As to `CC(C)Oc1ccccc1CN1CCN(Cc2cccc(C(=O)N3CCc4ccccc43)c2)CC1` [Cpd 56, (2,3-dihydro-indol-1-yl)-{3-[4-(2-isopropoxy-benzyl)-piperazin-1-ylmethyl]-phenyl}-methanone], the Ki turned out to be 1910 nM at α1d-AR, 655 nM on α1b-AR and 1200 nM at α1a-AR.

Turning to `CC(C)Oc1ccccc1N1CCN(Cc2cccc(C(=O)N3CCc4ccc(N)cc43)c2)CC1` [Cpd 5, (6-amino-2,3-dihydro-indol-1-yl)-{3-[4-(2-isopropoxy-phenyl)-piperazin-1-ylmethyl]-phenyl}-methanone], the Ki at α1d-AR is 2 nM; at α1b-AR it was 143 nM; on α1a-AR it was 1.9 nM.

Regarding `COc1cccc(OC)c1CNc1ccc2c(c1)N(C(=O)c1cccc(CN3CCN(c4ccccc4OC(C)C)CC3)c1)CC2` [Cpd 7, [6-(2,6-dimethoxy-benzylamino)-2,3-dihydro-indol-1-yl]-{3-[4-(2-isopropoxy-phenyl)-piperazin-1-ylmethyl]-phenyl}-methanone], the Ki on α1d-AR was 16 nM; at α1b-AR, 684 nM; at α1a-AR, 11 nM.

With `COc1ccccc1C1CCN(Cc2ccc(C(=O)N3CCc4ccccc43)cc2)CC1` [Cpd 50, (2,3-dihydro-indol-1-yl)-{4-[4-(2-methoxy-phenyl)-piperidin-1-ylmethyl]-phenyl}-methanone], the Ki on α1d-AR turned out to be 32 nM; on α1b-AR, 458 nM; at α1a-AR, 7.8 nM.

As to `O=C(c1ccc(CN2CCN(c3ccccc3OCC(F)(F)F)CC2)cc1)N1CCc2ccccc21` [Cpd 55, (2,3-dihydro-indol-1-yl)-(4-{4-[2-(2,2,2-trifluoro-ethoxy)-phenyl]-piperazin-1-ylmethyl}-phenyl)-methanone], the Ki on α1d-AR amounted to 43 nM; at α1b-AR it was 310 nM; on α1a-AR, 25.5 nM.

Consider `CC(C)Oc1ccccc1N1CCN(Cc2cccc(C(=O)N3CCc4ccc(NC(=O)c5ccc(F)cc5)cc43)c2)CC1` [Cpd 48, 4-fluoro-N-(1-{3-[4-(2-isopropoxy-phenyl)-piperazin-1-ylmethyl]-benzoyl}-2,3-dihydro-1H-indol-6-yl)-benzamide], for which the figures for the Ki on α1d-AR, on α1b-AR and on α1a-AR were 6 nM, 889 nM and 74 nM, respectively.

Turning to `CC(C)Oc1ccccc1C1CCN(Cc2cccc(C(=O)N3CCc4ccccc43)c2)CC1` [Cpd 51, (2,3-dihydro-indol-1-yl)-{3-[4-(2-isopropoxy-phenyl)-piperidin-1-ylmethyl]-phenyl}-methanone], the Ki on α1d-AR stood at 1.6 nM; on α1b-AR, 106 nM; on α1a-AR, 0.8 nM.

For the compound `CC(C)Oc1ccccc1N1CCN(Cc2cccc(C(=O)N3CCc4ccc(NS(N)(=O)=O)cc43)c2)CC1` [Cpd 20, N-(1-{3-[4-(2-isopropoxy-phenyl)-piperazin-1-ylmethyl]-benzoyl}-2,3-dihydro-1H-indol-6-yl)-sulfamide], the Ki on α1d-AR was 1.9 nM and 2.6 nM; at α1b-AR, 494 nM and 394 nM; on α1a-AR, 4.7 nM and 8.1 nM.

Turning to `COc1ccccc1C1CCN(Cc2ccc(C(=O)N3CCc4cc([N+](=O)[O-])ccc43)cc2)CC1` [Cpd 38, {4-[4-(2-methoxy-phenyl)-piperidin-1-ylmethyl]-phenyl}-(5-nitro-2,3-dihydro-indol-1-yl)-methanone], the Ki at α1d-AR was 44.2 nM; at α1b-AR it was 461 nM; at α1a-AR, 124 nM.
